From ChEMBL document CHEMBL5046271, “Design, Synthesis, and Biological Evaluation of 2-Formyl Tetrahydronaphthyridine Urea Derivatives as New Selective Covalently Reversible FGFR4 Inhibitors” (J Med Chem, 2022)
Calls of active or inactive are those of the source. No cut-off for these calls is given here.

Assays:
[1] = target: T1, Fibroblast growth factor receptor 1 (Homo sapiens, UniProt P11362); experiment: Inhibition of FGFR1 (unknown origin) using Tyr 04 peptide substrate measured after 2 hrs by FRET assay
[2] = target: T2, Fibroblast growth factor receptor 4 (Homo sapiens, UniProt P22455); experiment: Inhibition of FGFR4 (unknown origin) using Tyr 04 peptide substrate measured after 2 hrs by FRET assay
T2 sequence (P22455 whole entry): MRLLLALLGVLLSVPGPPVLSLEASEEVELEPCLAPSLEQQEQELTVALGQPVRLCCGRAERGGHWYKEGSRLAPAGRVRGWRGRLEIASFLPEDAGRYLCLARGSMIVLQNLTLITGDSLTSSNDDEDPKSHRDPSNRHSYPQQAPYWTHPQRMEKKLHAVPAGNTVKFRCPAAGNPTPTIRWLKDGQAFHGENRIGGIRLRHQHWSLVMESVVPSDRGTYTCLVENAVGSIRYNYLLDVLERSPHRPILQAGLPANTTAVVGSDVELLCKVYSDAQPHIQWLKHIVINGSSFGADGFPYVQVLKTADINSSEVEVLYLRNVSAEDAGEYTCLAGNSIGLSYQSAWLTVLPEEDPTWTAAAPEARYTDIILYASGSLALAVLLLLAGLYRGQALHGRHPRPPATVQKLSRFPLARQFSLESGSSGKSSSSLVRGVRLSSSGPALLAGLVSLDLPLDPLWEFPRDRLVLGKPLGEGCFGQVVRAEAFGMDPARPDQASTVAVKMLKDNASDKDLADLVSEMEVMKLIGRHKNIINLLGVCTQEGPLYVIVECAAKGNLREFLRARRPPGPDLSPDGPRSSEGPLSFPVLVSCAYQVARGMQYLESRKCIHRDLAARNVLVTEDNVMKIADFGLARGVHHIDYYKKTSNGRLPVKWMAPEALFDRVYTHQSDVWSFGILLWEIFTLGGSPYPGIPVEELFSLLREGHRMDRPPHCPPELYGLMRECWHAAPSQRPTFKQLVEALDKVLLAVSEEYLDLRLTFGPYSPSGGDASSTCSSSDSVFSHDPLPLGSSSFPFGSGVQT

[3] = target: Fibroblast growth factor receptor 2 (Homo sapiens, UniProt P21802); experiment: Inhibition of FGFR2 (unknown origin) using Tyr 04 peptide substrate measured after 2 hrs by FRET assay
Sequence of Fibroblast growth factor receptor 2 (P21802 whole entry): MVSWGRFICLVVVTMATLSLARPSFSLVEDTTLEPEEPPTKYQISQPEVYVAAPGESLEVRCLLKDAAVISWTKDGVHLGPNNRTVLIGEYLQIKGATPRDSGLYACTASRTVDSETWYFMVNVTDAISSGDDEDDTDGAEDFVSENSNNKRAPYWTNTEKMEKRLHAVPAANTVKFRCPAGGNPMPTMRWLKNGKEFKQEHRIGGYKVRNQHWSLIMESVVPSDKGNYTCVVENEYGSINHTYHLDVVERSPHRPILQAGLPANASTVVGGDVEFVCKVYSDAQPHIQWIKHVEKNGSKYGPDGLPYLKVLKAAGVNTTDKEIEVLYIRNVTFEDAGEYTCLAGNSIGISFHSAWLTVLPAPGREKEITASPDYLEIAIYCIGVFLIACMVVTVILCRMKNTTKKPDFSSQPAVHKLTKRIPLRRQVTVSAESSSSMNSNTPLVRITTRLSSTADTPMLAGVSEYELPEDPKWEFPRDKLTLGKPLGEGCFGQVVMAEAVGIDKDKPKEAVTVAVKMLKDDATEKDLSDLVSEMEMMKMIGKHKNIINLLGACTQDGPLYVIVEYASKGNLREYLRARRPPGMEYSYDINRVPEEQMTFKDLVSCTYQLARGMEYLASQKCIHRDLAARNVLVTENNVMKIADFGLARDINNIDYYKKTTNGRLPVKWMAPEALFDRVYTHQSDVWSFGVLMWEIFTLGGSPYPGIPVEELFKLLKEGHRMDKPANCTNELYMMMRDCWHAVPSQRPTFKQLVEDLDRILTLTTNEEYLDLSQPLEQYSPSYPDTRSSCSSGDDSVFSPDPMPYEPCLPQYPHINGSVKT

[4] = target: T3, Fibroblast growth factor receptor 3 (Homo sapiens, UniProt P22607); experiment: Inhibition of FGFR3 (unknown origin) using Tyr 04 peptide substrate measured after 2 hrs by FRET assay
Huh-7 = experiment: Cytotoxicity against human Huh-7 cells harboring FGF19/FGFR4 assessed as inhibition of cell growth
Hep 3B2 [5] = experiment: Cytotoxicity against human Hep 3B2.1-7 cells harboring FGF19/FGFR4 assessed as inhibition of cell growth; conditions: Hep3B
MDA-MB-453 = experiment: Cytotoxicity against human MDA-MB-453 cells harboring FGF19/FGFR4 assessed as inhibition of cell growth
NCI-H1581 [6] = experiment: Cytotoxicity against human NCI-H1581 cells harboring FGF19/FGFR4 assessed as inhibition of cell growth
[7] = target: T1, Fibroblast growth factor receptor 1; experiment: Inhibition of human FGFR1 expressed in bacterial expression system at 1000 nM by KINOMEscan assay relative to control
[8] = test system: Fibroblast growth factor receptor 2 (Homo sapiens), P21802 [N549H]; experiment: Inhibition of human FGFR2 N549H mutant expressed in bacterial expression system at 1000 nM by KINOMEscan assay relative to control
Sequence of Fibroblast growth factor receptor 2 (Homo sapiens), P21802 [N549H] (P21802 whole entry N549H): as the sequence (P21802 whole entry) above, with N549H counted along it

[9] = target: T3, Fibroblast growth factor receptor 3; experiment: Inhibition of human FGFR3 expressed in bacterial expression system at 1000 nM by KINOMEscan assay relative to control
[10] = target: Proto-oncogene tyrosine-protein kinase receptor Ret (Homo sapiens) (UniProt P07949); experiment: Inhibition of human RET expressed in bacterial expression system at 1000 nM by KINOMEscan assay relative to control
Sequence of Proto-oncogene tyrosine-protein kinase receptor Ret (Homo sapiens) (P07949 whole entry): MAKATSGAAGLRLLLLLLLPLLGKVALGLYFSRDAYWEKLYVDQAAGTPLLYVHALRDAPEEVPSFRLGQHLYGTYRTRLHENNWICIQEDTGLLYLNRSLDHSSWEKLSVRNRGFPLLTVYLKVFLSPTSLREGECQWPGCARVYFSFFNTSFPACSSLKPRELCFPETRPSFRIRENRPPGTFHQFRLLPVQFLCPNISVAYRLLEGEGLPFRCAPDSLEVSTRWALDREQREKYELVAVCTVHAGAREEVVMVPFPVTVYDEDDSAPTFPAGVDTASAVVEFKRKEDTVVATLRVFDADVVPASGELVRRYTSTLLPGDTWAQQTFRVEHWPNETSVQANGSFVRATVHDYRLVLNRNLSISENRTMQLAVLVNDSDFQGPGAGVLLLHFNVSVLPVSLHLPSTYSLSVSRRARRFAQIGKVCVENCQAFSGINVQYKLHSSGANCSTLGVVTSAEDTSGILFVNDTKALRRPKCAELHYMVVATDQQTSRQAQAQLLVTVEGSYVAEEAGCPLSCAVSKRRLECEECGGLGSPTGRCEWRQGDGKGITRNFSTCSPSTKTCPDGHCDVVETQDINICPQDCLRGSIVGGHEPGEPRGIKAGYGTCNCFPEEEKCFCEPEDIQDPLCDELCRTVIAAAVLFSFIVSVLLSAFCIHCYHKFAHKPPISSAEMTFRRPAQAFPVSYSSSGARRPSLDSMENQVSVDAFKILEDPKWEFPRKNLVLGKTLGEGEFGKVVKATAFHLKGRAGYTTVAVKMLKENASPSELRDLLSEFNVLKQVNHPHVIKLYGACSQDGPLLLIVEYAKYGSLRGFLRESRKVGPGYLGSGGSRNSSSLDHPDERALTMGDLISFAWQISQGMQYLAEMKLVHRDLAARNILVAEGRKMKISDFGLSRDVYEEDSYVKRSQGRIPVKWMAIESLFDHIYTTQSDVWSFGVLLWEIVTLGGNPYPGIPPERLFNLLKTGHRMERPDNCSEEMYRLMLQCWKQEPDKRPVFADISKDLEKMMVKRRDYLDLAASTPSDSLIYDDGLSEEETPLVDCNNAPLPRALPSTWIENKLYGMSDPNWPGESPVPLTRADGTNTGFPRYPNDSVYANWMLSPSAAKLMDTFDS

[11] = target: Receptor-type tyrosine-protein kinase FLT3 (Homo sapiens) (UniProt P36888); experiment: Inhibition of human FLT3 expressed in bacterial expression system at 1000 nM by KINOMEscan assay relative to control
[12] = target: Platelet-derived growth factor receptor alpha (Homo sapiens) (UniProt P16234); experiment: Inhibition of human PDGFRA expressed in mammalian expression system at 1000 nM by KINOMEscan assay relative to control
[13] = target: Platelet-derived growth factor receptor beta (Homo sapiens) (UniProt P09619); experiment: Inhibition of human PDGFRB expressed in bacterial expression system at 1000 nM by KINOMEscan assay relative to control
[14] = target: MAP kinase-activated protein kinase 2 (Homo sapiens) (UniProt P49137); experiment: Inhibition of human MAPKAPK2 expressed in bacterial expression system at 1000 nM by KINOMEscan assay relative to control
[15] = target: MAP kinase-activated protein kinase 3 (Homo sapiens) (UniProt Q16644); experiment: Inhibition of human MAPKAPK3 expressed in bacterial expression system at 1000 nM by KINOMEscan assay relative to control
Sequence of MAP kinase-activated protein kinase 3 (Homo sapiens) (Q16644 whole entry, looked up): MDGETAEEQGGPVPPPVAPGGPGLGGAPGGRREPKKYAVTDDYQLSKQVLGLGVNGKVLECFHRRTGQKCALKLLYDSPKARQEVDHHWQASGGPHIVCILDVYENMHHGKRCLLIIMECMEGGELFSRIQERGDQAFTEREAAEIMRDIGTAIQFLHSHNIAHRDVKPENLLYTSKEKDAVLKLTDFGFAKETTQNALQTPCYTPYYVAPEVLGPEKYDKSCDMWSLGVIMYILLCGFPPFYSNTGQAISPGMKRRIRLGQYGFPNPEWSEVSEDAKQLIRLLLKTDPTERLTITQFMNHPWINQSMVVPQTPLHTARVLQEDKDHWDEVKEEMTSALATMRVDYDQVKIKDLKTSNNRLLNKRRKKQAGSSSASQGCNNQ

[16] = target: Transient receptor potential cation channel subfamily M member 7 (Homo sapiens) (UniProt Q96QT4); experiment: Inhibition of human CHAK1 at 1000 nM by KINOMEscan assay relative to control
Sequence of Transient receptor potential cation channel subfamily M member 7 (Homo sapiens) (Q96QT4 whole entry): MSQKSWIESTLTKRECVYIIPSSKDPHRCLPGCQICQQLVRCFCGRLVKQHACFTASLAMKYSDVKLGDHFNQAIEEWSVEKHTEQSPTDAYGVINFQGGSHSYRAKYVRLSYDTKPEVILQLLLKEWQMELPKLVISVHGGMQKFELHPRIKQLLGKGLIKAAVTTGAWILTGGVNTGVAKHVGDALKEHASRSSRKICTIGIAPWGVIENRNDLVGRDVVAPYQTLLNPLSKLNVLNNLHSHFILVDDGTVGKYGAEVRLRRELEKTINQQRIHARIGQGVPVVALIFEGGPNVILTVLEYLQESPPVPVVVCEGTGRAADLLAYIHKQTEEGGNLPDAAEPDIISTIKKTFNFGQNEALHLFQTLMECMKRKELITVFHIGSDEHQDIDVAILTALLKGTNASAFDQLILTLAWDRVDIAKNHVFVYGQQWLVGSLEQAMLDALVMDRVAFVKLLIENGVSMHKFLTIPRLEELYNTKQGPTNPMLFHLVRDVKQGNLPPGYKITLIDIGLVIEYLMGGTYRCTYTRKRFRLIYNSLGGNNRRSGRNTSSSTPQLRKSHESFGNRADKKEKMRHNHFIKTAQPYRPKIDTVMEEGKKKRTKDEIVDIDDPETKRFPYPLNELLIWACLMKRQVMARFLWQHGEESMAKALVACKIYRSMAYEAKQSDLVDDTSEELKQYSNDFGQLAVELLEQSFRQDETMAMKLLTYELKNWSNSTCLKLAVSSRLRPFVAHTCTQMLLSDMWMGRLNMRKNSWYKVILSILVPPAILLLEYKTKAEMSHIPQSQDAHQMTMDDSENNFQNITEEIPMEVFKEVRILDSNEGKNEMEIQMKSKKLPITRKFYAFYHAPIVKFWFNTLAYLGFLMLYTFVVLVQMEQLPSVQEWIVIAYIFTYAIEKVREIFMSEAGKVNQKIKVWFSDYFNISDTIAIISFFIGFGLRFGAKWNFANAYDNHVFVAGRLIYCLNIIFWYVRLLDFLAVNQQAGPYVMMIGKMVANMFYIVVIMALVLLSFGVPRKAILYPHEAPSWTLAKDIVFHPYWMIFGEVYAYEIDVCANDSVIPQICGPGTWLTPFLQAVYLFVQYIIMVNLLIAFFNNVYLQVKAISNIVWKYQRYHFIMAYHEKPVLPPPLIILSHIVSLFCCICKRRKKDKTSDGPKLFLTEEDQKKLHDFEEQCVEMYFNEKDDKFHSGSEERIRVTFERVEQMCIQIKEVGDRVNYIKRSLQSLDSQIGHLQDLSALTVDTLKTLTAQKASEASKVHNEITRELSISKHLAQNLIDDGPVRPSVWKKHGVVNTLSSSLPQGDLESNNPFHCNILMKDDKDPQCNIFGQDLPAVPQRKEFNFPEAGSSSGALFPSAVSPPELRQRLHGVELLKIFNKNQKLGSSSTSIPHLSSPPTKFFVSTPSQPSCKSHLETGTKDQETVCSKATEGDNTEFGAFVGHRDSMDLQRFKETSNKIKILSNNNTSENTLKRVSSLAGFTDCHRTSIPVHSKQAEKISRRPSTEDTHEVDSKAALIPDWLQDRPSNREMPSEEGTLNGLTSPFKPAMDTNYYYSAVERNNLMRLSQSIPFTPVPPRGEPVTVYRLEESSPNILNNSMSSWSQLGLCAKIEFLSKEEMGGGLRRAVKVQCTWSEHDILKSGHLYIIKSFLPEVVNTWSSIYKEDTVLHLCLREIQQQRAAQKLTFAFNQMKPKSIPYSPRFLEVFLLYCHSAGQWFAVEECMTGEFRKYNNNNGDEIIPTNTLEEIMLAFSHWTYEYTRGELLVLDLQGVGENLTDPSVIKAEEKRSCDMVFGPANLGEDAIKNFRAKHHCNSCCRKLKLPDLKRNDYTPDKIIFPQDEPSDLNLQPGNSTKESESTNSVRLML

[17] = target: Phosphatidylinositol 4-kinase alpha (Homo sapiens) (UniProt P42356); experiment: Inhibition of human PIK4 at 1000 nM by KINOMEscan assay relative to control
[18] = target: T4, Dual specificity protein kinase TTK (Homo sapiens) (UniProt P33981); experiment: Inhibition of human TTK at 1000 nM by KINOMEscan assay relative to control
T4 sequence (whole entry): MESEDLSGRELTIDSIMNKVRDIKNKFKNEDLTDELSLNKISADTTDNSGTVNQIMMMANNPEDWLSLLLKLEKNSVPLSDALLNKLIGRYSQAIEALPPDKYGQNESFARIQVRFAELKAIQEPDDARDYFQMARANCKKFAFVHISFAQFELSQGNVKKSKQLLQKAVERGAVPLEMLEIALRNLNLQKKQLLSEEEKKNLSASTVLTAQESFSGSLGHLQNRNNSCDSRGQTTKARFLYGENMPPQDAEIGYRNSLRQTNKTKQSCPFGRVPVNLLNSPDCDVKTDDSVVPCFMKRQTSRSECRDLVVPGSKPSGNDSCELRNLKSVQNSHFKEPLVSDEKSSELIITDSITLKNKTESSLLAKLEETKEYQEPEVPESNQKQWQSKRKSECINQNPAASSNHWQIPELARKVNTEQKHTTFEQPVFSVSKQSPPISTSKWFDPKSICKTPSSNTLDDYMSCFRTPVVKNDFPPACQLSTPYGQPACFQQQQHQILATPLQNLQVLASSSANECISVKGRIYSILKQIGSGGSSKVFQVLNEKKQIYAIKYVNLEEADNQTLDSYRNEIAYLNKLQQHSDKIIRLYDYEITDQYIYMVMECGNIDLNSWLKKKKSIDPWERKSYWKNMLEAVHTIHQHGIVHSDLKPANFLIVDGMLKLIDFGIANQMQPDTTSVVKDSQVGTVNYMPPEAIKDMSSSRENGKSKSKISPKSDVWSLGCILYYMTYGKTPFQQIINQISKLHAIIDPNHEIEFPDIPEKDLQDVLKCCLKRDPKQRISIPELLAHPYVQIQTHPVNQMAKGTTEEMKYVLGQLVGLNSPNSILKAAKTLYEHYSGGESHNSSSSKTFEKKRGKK

[19] = Half life in Sprague- Dawley rat at 5 mg/kg, iv incubation upto 24 hrs by LC-MS/MS analysis; assay type: ADME, organism-based; conditions: in vivo
[20] = Half life in Sprague- Dawley rat at 25 mg/kg, po incubation upto 24 hrs by LC-MS/MS analysis; assay type: ADME, organism-based; conditions: in vivo
[21] = Cmax in Sprague-Dawley rat at 5 mg/kg, iv incubation upto 24 hrs by LC-MS/MS analysis; assay type: ADME, organism-based; design: route intravenous, dose 5 mg/kg, time <=24; conditions: in vivo
[22] = Cmax in Sprague-Dawley rat at 25 mg/kg, po incubation upto 24 hrs by LC-MS/MS analysis; assay type: ADME, organism-based; design: route oral, dose 25 mg/kg, time <=24; conditions: in vivo
[23] = AUC(0 to t) in Sprague-Dawley rat at 5 mg/kg, iv incubation upto 24 hrs by LC-MS/MS analysis; assay type: ADME, organism-based; design: route intravenous, dose 5 mg/kg, time <=24; conditions: in vivo
[24] = AUC(0 to t) inSprague- Dawley rat at 25 mg/kg, po incubation upto 24 hrs by LC-MS/MS analysis; assay type: ADME, organism-based; design: route oral, dose 25 mg/kg, time <=24; conditions: Sprague-Dawley, in vivo
[25] = Clearance in Sprague- Dawley rat at 5 mg/kg, iv incubation upto 24 hrs by LC-MS/MS analysis; assay type: ADME, organism-based; conditions: in vivo
[26] = Oral bioavailability in Sprague- Dawley rat at 25 mg/kg incubation upto 24 hrs by LC-MS/MS analysis; assay type: ADME, organism-based; conditions: in vivo
BaF3 [27] = experiment: Inhibition of FGFR4 expressed in mouse BaF3-ETV6-FGFR4 cells assessed as inhibition of PLCgamma1 phosphorylation by Western blot analysis; assay type: cell-based; conditions: dose 3.7-100 nM
BaF3 [28] = experiment: Inhibition of FGFR4 expressed in mouse BaF3-ETV6-FGFR4 cells assessed as inhibition of FRS2alpha phosphorylation by Western blot analysis; assay type: cell-based; conditions: dose 3.7-100 nM
[29] = target: T2, Fibroblast growth factor receptor 4; experiment: Binding affinity to FGFR4 (unknown origin) assessed as dissociation constant by competition binding assay
Hep 3B2 [30] = experiment: Inhibition of colony formation in human Hep 3B2.1-7 cells incubated for 10 days by crystal violet staining based assay; assay type: functional, cell-based; conditions: time 10.0 day
NCI-H1581 [31] = experiment: Inhibition of colony formation in human NCI-H1581 cells incubated for 10 days by crystal violet staining based assay; assay type: functional, cell-based; conditions: time 10.0 day
Hep 3B2 [32] = experiment: Antiproliferative activity in human Hep 3B2.1-7 cells assessed as reduction of cell number measured after 72 hrs by CCK8 assay; assay type: functional, cell-based
NCI-H1581 [33] = experiment: Antiproliferative activity in human NCI-H1581 cells assessed as reduction of cell number measured after 72 hrs by CCK8 assay; assay type: functional, cell-based
Hep 3B2 [34] = experiment: Antitumor activity against human Hep 3B2.1-7 cells xenografted in mouse assessed as tumor growth inhibitions at 30 mg/kg, po BID administered for 12 days; assay type: functional; conditions: Hep3B, 288 h, time 12 day, read-out: TGI
[35] = Toxicity in mouse assessed as mortality at 30 mg/kg, po BID administered for 12 days (reference value: < 5 %); assay type: organism-based; conditions: in vivo, 288 h, time 12 day
[36] = Toxicity in mouse assessed as induction of weight loss at 30 mg/kg, po BID administered for 12 days (reference value: < 5 %); assay type: organism-based; conditions: in vivo, 288 h, time 12 day
BaF3 [37] = experiment: Inhibition of FGFR4 expressed in mouse BaF3-ETV6-FGFR4 cells assessed as inhibition of ERK phosphorylation by Western blot analysis; assay type: cell-based; conditions: dose 3.7-100 nM

SMILES: CC(C)Oc1cc(NC(=O)N2CCCc3cc(CN4CCN(C)CC4=O)c(C=O)nc32)ncc1C#Cc1cccnc1
- IC50 [1]: > 10 µM
- IC50 [2]: 0.0054 µM
- IC50 [3]: > 10 µM
- IC50 [4]: > 10 µM
- IC50 (Huh-7): 0.0024 µM
- IC50 (Hep 3B2 [5]): 0.104 µM
- IC50 (MDA-MB-453): 0.14 µM
- IC50 (NCI-H1581 [6]): > 3 µM
- inhibition [7]: -5%
- inhibition [8]: 1%
- inhibition [9]: 10%
- inhibition [10]: -2%
- inhibition [11]: 10%
- inhibition [12]: 5%
- inhibition [13]: 5%
- inhibition [14]: -3%
- inhibition [15]: 3%
- inhibition [16]: 8%
- inhibition [17]: 6%
- inhibition [18]: 10%
- half-life [19]: 0.89 h
- half-life [20]: 3.06 h
- Cmax [21]: 11.1 µg/mL
- Cmax [22]: 8.56 µg/mL
- AUC(0-t) at 24 h [23]: 15.3 µg·h/mL
- AUC(0-t) at 24 h [24]: 39 µg·h/mL
- clearance [25]: 0.369 L/h/kg
- bioavailability [26]: 51%
- inhibition (BaF3 [27]): Dose-Dependent Effect
- inhibition (BaF3 [28]): Dose-Dependent Effect
- Kd [29]: 0.0062 µM
- Activity (Hep 3B2 [30]): Active
- Activity (NCI-H1581 [31]): Active
- Activity (Hep 3B2 [32]): Active
- Activity (NCI-H1581 [33]): Active
- inhibition in vivo at 30 mg/kg (Hep 3B2 [34]): 95.2%
- Activity [35]: Non-Toxic
- Activity [36]: Non-Toxic
- inhibition (BaF3 [37]): Dose-Dependent Effect
